The conditions of data set [1]: comparison surfactants, conditions not given; cited from earlier work.
Data set [2] concerns Escherichia coli ATCC 8739, Pseudomonas aeruginosa ATCC 15442, Staphylococcus aureus ATCC 6538, Propionibacterium acnes MTCC 1951, Candida albicans ATCC 10231 …. The data set is described as follows: Preservative challenge test according to PCPC protocol. The class given is cell-based, bacteria, yeast and mold. The text has this:
The preservative efficacy of the compounds of Formula I has been tested in surfactant formulations typically containing anionic surfactant with pH ranging for 4 to 8.0. The personal care and home care formulations (body wash, shampoo, skin-cream and dish wash) are preserved with 1.0 to 2.0% of compounds of Formula I. The details of formulations are given in Examples 4, 5, 6, 7, 8, 9, and 10. The above formulations pass the challenge test performed according to PCPC protocol using Escherichia coli ATCC 8739, Pseudomonas aeruginosa ATCC 15442 (Gram −ve bacteria), Staphylococcus aureus ATCC 6538, Propionibacterium acnes MTCC 1951, (Gram +ve) Candida albicans ATCC 10231, Malassezia furfur MTCC 1374 (yeast) and Aspergillus niger ATCC 16404 (mold) The formulations pass the challenge test criteria for both bacteria and fungi.
The above formulations (Example 4, 5, 6, 7, 8, 9 & 10) pass the challenge test performed according to PCPC protocol using Escherichia coli ATCC 8739, Pseudomonas aeruginosa ATCC 15442 (Gram −ve bacteria), Staphylococcus aureus ATCC 6538, Propionibacterium acnes MTCC 1951, (Gram +ve) Candida albicans ATCC 10231, Malassezia furfur MTCC 1374 (yeast) and Aspergillus niger ATCC 16404 (mold).

Turning to `CCCCCCCCCCCC[N+](CCC(=O)OC)(CCC(=O)OC)Cc1ccccc1.[Cl-]` [N-Lauryl, N,N-Dimethyldipropionate Benzyl Ammonium Chloride], the “MIC (%)” value in the data set with P acne amounted to 0.4%; against Pseudomonas sp, 0.5%; against M furfur, 0.5%; in the data set with Aspergillus niger, 0.2%; against S aureus, 0.5%; in the data set with E coli, 0.3%. In addition, in the data set with C. albicans, the “MIC (%)” value was 0.4%.

On to `CCCCCCCCCCCCOS(=O)(=O)[O-].[Na+]` [sodium lauryl sulphate], for which, in data set [1], the CMC is 8.0 mmol/L.

For the compound “N-Alkyl, N,N-dimethyl, N-benzyl ammonium chloride [Benzalkonium chloride]”, the challenge test entry in [2] (10% SLES preserved with 1% of the substance, PCPC protocol) is reported as “failed to pass”. Further, in data set [2] (used at 10000 ppm), the “antimicrobial activity in the presence of anionic surfactant” value is “does not exhibit any antimicrobial activity”.

Turning to cocoamidopropyl betaine, the CMC in [1] is recorded as 0.05 mmol/L.

(Values after US10259774B1, “Antimicrobials for preservation of home and personal care products” (GALAXY SURFACTANTS LTD., priority 2018, dated 2019).)
